# System: Peripheral blood lymphocytes
# Test: In vitro cytotoxicity, Trypan Blue exclusion after 3 days of culture
# Settings: for % Viability: 3 days, means of 4 counts
# Description: Peripheral blood lymphocytes were prepared from normal blood. Cells were cultured for 3 days in complete medium [(RPMI, a commercially available so-called standard salt solution) + 10 % foetal calf serum (FCS) + […]] in the presence/absence of phytohemagglutinin (PHA). Duplicate wells were set up. Incubation was at 37°C and 5 % CO₂.
# On the third day, cell viabilities were determined using the Trypan Blue exclusion test.
# Those products which were water soluble, were made up at 8 mg/mℓ stocks in sterile distilled water and diluted 1:10 in RPMI medium and again diluted 1:10 directly in the wells containing the cells in complete medium. The final concentrations were thus 80 µg/mℓ. For the lower dilutions, the 8 mg/mℓ stock was diluted 1:2 or 1:4 or 1:8 in water before being diluted in the RPMI medium.
# For those products which were DMSO-soluble, the stocks were made'up at 8 mg/mℓ in 100 % DMSO. This stock was diluted 1:10 in 100 % FCS and diluted 1:10 directly in the wells containing the cells in RPMI medium only. The final concentrations were thus 10 % FCS and 1 % DMSO. For the lower dilutions, the 8 mg/mℓ stock was diluted 1:2 or 1:4 or 1:8 with DMSO before the FCS dilution step.
# This stock was diluted in water to yield a working stock of 2 mg/mℓ. The 2 mg/ml stock was diluted 1:20 or 1:10 or 1:5 or 1:2.5 in water and again 1:10 in the wells to give the 10, 20, 40 or 80 µg/mℓ final concentrations respectively.
smiles,measurement,setting,value
"CC[C@H](CC[C@@H](C)[C@H]1CC[C@H]2[C@@H]3CC=C4C[C@@H](O[C@@H]5O[C@H](COS(=O)(=O)O)[C@@H](OS(=O)(=O)O)[C@H](OS(=O)(=O)O)[C@H]5OS(=O)(=O)O)CC[C@]4(C)[C@H]3CC[C@]12C)C(C)C [BSSG-(SO₄⁻)₄, β-Sitosteryl β-D-glucoside tetra-sulphate]",% Viability,Cells + PHA + 10 µg/mℓ,80%
same,% Viability,Cells + PHA + 20 µg/mℓ,85%
same,% Viability,Cells + PHA + 40 µg/mℓ,82%
same,% Viability,Cells + PHA + 80 µg/mℓ,83%
same,"viability of test cells, trend with concentration",from 10 to 80 µg/mℓ,no tendency to toxicity
